Drawing on ChEMBL document CHEMBL1148163, “Studies on inhibitors of skin tumor promotion, XII. Rotenoids from Amorpha fruticosa” (J Nat Prod, 1993), this text covers Activity and viability for six compounds.

A value given as a limit tells only on which side of the number the result lay.

Data set [1] deals with Raji. The data set can be described thus: Inhibition of 12-O-tetradecanoylphorbol-13-acetate induced EBV-early antigen activation in human Raji cells assessed as EA activation at 500 molar ratio relative to TPA. Format: cell-based. Also noted: scale not given: the % may be the effect or the level left. The settings on record: human gammaherpesvirus 4.
For data set [2], the system named is Raji. The experiment in a line: Inhibition of 12-O-tetradecanoylphorbol-13-acetate induced EBV-early antigen activation in human Raji cells assessed as EA activation at 100 molar ratio relative to TPA. Conditions: human gammaherpesvirus 4. Format: cell-based. More on the design: scale not given: the % may be the effect or the level left.
Data set [3] deals with Raji. The data set can be described thus: Inhibition of 12-O-tetradecanoylphorbol-13-acetate induced EBV-early antigen activation in human Raji cells assessed as EA activation at 10 molar ratio relative to TPA. More on the design: scale not given: the % may be the effect or the level left. Format: cell-based. Conditions: human gammaherpesvirus 4.
Data set [4] in a line: Cytotoxicity against human Raji cells assessed as cell viability at 1000 molar ratio. Format: cell-based. The settings on record: read-out: Activity.
Data set [5] is described as follows: Cytotoxicity against human Raji cells assessed as cell viability at 500 molar ratio. It is filed as cell-based. The settings on record: read-out: Activity.
A short description of data set [6]: Cytotoxicity against human Raji cells assessed as cell viability at 100 molar ratio. It is filed as cell-based. The settings on record: read-out: Activity.
Data set [7] is described as follows: Cytotoxicity against human Raji cells assessed as cell viability at 10 molar ratio. It is filed as cell-based. The settings on record: read-out: Activity.
Data set [8] deals with Raji. The experiment in a line: Effect on TPA-induced cell cycle arrest in human Raji cells assessed as accumulation at G1 phase at 32 nmol by flow cytometry. It is filed as functional. For orientation: Flow cytometry measures light scatter and fluorescence of single cells or particles in a stream.
Data set [9] has as its system Raji. The experiment in a line: Effect on TPA-induced cell cycle arrest in human Raji cells assessed as accumulation at S phase at 32 nmol by flow cytometry. It is filed as functional.
The test system of data set [10] is Raji. The data set can be described thus: Effect on TPA-induced cell cycle arrest in human Raji cells assessed as accumulation at G2/M phase at 32 nmol by flow cytometry. It is filed as functional.
Data set [11] has as its system Mus musculus. The data set can be described thus: Inhibition of DMBA-induced/TPA-promoted carcinogenesis in ICR mouse assessed as reduction in skin-papilloma formation at 85 nmol administered twice weekly after 1 week of initiation for 20 weeks. Format: functional. Also noted: scale not given: the % may be the effect or the level left.
The test system of data set [12] is Mus musculus. The experiment in a line: Inhibition of DMBA-induced/TPA-promoted carcinogenesis in ICR mouse assessed as number of skin papillomas per mouse at 85 nmol administered twice weekly after 1 week of initiation for 20 weeks. Format: functional. More on the design: scale not given: the % may be the effect or the level left.
Data set [13] deals with Raji. The experiment in a line: Inhibition of 12-O-tetradecanoylphorbol-13-acetate induced EBV-early antigen activation in human Raji cells assessed as EA activation at 1000 molar ratio relative to TPA. Conditions: human gammaherpesvirus 4. It is filed as cell-based. More on the design: scale not given: the % may be the effect or the level left.
Data set [14] concerns Mus musculus. The data set can be described thus: Inhibition of DMBA-induced/TPA-promoted carcinogenesis in ICR mouse assessed as number of mouse bearing one papilloma at 85 nmol administered twice weekly after 1 week of initiation. Format: functional. More on the design: scale not given: the % may be the effect or the level left.

Consider `COc1cc2c(cc1OC)[C@]1(O)C(=O)c3ccc4c(c3O[C@@H]1CO2)C=CC(C)(C)O4` [TEPHROSIN], for which the Activity in the data set with Raji [1] was found to be 26.1%; in the data set with Raji [2], 60.4%; with Raji [3] it was 89.3%; in the data set with Raji [8], 57.8%; in the data set on Raji [9] it was 13.4%; with Raji [10], 28.8%. Besides, the Activity in the data set with Mus musculus [11] came to 60%; in the data set on Mus musculus [12] it was 70%; in the data set with Raji [13], 8%. Also, in [4], the viability at 1000 molar ratio is 40%. Further, the viability at 500 molar ratio in [5] worked out at 60%. For the same compound, in data set [6], the viability at 100 molar ratio amounted to 70%. Moreover, the viability at 10 molar ratio in data set [7] came out at 80%.

On to `C=C(CO)[C@H]1Cc2c(ccc3c2O[C@@H]2COc4cc(OC)c(OC)cc4[C@@H]2C3=O)O1` [AMORPHIGENIN], for which the Activity with Raji [1] was 64.2%; with Raji [2] it was 100%; with Raji [3], 100%; with Raji [13], 31.7%. Further, the viability at 1000 molar ratio in data set [4] came to 80%. For the same compound, the viability at 500 molar ratio in data set [5] was 80%. The viability at 100 molar ratio in data set [6] came to 80%. In [7], the viability at 10 molar ratio came to 80%.

On to `COc1cc2c(cc1OC)[C@]1(O)C(=O)c3ccc4c(c3O[C@@H]1CO2)C[C@H](C(C)(C)O)O4`, for which the Activity in the data set on Raji [1] worked out at 43.9%; in the data set with Raji [2], 82.1%; in the data set on Raji [3], 100%; in the data set with Raji [13], 22.6%. In addition, the viability at 1000 molar ratio in data set [4] worked out at 80%. Also, in data set [5], the viability at 500 molar ratio was found to be 80%. Besides, in [6], the viability at 100 molar ratio came out at 80%. Also, the viability at 10 molar ratio in data set [7] was determined as 80%.

As to `COc1cc2c(cc1OC)[C@@H]1C(=O)c3ccc4c(c3O[C@@H]1CO2)C[C@H](C(C)(C)O[C@@H]1O[C@H](CO)[C@@H](O)[C@H](O)[C@H]1O)O4`, the Activity amounted to 36.3% in the data set on Raji [1], 87.3% in the data set on Raji [2], 100% with Raji [3] and 0% in the data set on Raji [13]. For the same compound, the viability at 1000 molar ratio in [4] was found to be 80%. Moreover, the viability at 500 molar ratio in data set [5] turned out to be 80%. For the same compound, in [6], the viability at 100 molar ratio turned out to be 80%. The viability at 10 molar ratio in [7] came to 80%.

For `COC1=CC(=O)[C@]2(C=C1OC)OC[C@H]1Oc3c(ccc4c3C=CC(C)(C)O4)C(=O)[C@H]12` [AMORPHISPIRONONE], the Activity was determined as 31.8% in the data set on Raji [1]; 70.4% in the data set with Raji [2]; 100% with Raji [3]; 59.1% in the data set on Raji [8]; 10.3% in the data set on Raji [9]; 30.6% with Raji [10]. Further, the Activity with Mus musculus [14] is 20%; in the data set with Mus musculus [11], >80%; in the data set on Mus musculus [12], >90%; with Raji [13], 0%. Also, in [4], the viability at 1000 molar ratio was 20%. For the same compound, the viability at 500 molar ratio in data set [5] was found to be 80%. Further, in data set [6], the viability at 100 molar ratio came out at 80%. For the same compound, the viability at 10 molar ratio in data set [7] is 80%.

Take `C=C(CO)[C@H]1Cc2c(ccc3c2O[C@@H]2COc4cc(OC)c(OC)cc4[C@]2(O)C3=O)O1` [DABINOL]: the Activity in the data set on Raji [1] was 89.7%; in the data set with Raji [2], 100%; in the data set with Raji [3], 100%; in the data set with Raji [13], 24.2%. The viability at 1000 molar ratio in data set [4] was found to be 80%. Further, the viability at 500 molar ratio in data set [5] is 80%. The viability at 100 molar ratio in [6] was 80%. Also, the viability at 10 molar ratio in data set [7] turned out to be 80%.
